{"source": "patent US10266527B2", "about": "“T-box riboswitch-binding anti-bacterial compounds” (THE RESEARCH FOUNDATION FOR THE STATE UNIVERSITY OF NEW YORK, priority 2013, dated 2019)", "format_in_all_cases": "cell-based", "key": {"[1]": {"test_system": "S. aureus ATCC 29213", "experiment": "MBC determination", "conditions": "S. aureus ATCC 29213; N/O = not observed", "description": "(§1) The identity and purity of both PKZ 6 and 18 was confirmed by mass spectroscopy. Forty commercially available compounds chosen on the basis of initial in silico selections and similarity to our two hits were screened by disc diffusion assay (DDA) to determine their relative antibacterial activity with S. aureus. […] These 14 compounds were further evaluated by minimum inhibitory concentration assays (MIC)^41,42, and minimum bactericidal assays (MBC)^41 to confirm antibacterial activity, determine the concentration at which S. aureus growth is inhibited in liquid culture (MIC) and if they are acting as bacteriostatic or bactericidal agents (MBC). […] Representative embodiments are shown below.\n(§2) Following 24 h incubation of these subcultures at 37° C., MBC values were recorded as the lowest compound concentration at which no viable colonies were observed."}, "[2]": {"test_system": "S. aureus ATCC 29213", "experiment": "Broth microdilution MIC", "conditions": "S. aureus ATCC 29213; N/O = not observed", "description": "as §1\n(§3) Broth microdilution assays^77, 78 were performed with B. subtilis, and S. aureus to determine the lowest compound concentration inhibiting visible growth, i.e., minimum inhibitory concentration (MIC) of the 4 original compounds. […] The insolubility of the fourth compound may account for its lack of antibacterial activity. […] The MICs of each compound are moderate.\n(§4) Strains were grown on trypticase soy agar (TSA) with 5% sheep blood at 37° C. for 24 hours. Five isolated colonies were used to inoculate 5 mL cation-adjusted Mueller-Hinton broth (CAMHB) contained in a 50 mL centrifuge tube. The resulting culture was incubated shaking at 200 rpm for 3 hours at 37° C. and then diluted in CAMHB until its turbidity matched that of a 0.5 McFarland standard (OD625 0.08-0.10). After the culture had been standardized against a 0.5 McFarland standard, it was diluted 1:10 in CAMHB and then 5 μL of this dilution was added to the appropriate wells of a 96-well, flat-bottomed tissue culture plate in which each row contained a twofold dilution series of a particular compound ranging in concentration from 0.25 μg/mL to 512 μg/mL. Each plate also included a sterility control well containing CAMHB to which standardized inoculum was not added and a growth control well containing CAMHB to which 5 μL standardized inoculum was added. […] With the exception of the sterility control well, all wells were inoculated within 15 minutes of inoculum preparation to ensure that the starting concentration of bacteria in each well was approximately 5×10^5 CFU/m L. A Tecan Sunrise microplate absorbance reader was used to measure the OD620 of each well before and after 20 h incubation at 37° C. MIC values were recorded as the lowest compound concentration at which no visible growth was observed after this incubation period."}, "[3]": {"test_system": "S. pneumoniae ATCC 49619", "experiment": "Broth microdilution MIC", "conditions": "S. pneumoniae ATCC 49619"}, "[4]": {"test_system": "E. faecalis ATCC 29212", "experiment": "Broth microdilution MIC", "conditions": "N/O = not observed"}, "[5]": {"test_system": "E. faecalis ATCC 29212", "experiment": "MBC determination", "conditions": "N/O = not observed", "protocol": "as §2"}, "[6]": {"test_system": "E. coli ATCC 25922", "experiment": "MBC determination", "conditions": "E. coli ATCC 25922", "protocol": "as §2"}, "[7]": {"test_system": "B. cereus ATCC 7064", "experiment": "MBC determination", "conditions": "N/O = not observed", "protocol": "as §2"}, "[8]": {"test_system": "P. aeruginosa ATCC 27853", "experiment": "MBC determination", "protocol": "as §2"}, "[9]": {"test_system": "B. subtilis BGSC 1A1", "experiment": "MBC determination", "conditions": "IND = indeterminate", "protocol": "as §2"}, "[10]": {"test_system": "B. cereus ATCC 7064", "experiment": "Broth microdilution MIC", "conditions": "B. cereus ATCC 7064"}, "[11]": {"test_system": "B. subtilis BGSC 1A1", "experiment": "Broth microdilution MIC", "conditions": "B. subtilis BGSC 1A1; 20 h at 37° C.", "protocol": "as §3, §4"}, "[12]": {"test_system": "P. aeruginosa ATCC 27853", "experiment": "Broth microdilution MIC", "conditions": "N/O = not observed"}, "[13]": {"test_system": "E. coli ATCC 25922", "experiment": "Broth microdilution MIC (Gram negative specificity control)", "conditions": "E. coli ATCC 25922; N/O = not observed"}}}
{"substance": "Gentamicin [reference compound]", "values": [{"measurement": "MBC", "setting": "[1]", "value": 8, "unit": "µg/mL"}, {"measurement": "MIC", "setting": "[2]", "value": 0.5, "unit": "µg/mL"}, {"measurement": "MIC", "setting": "[3]", "value": "4 (N/D) μg/mL"}, {"measurement": "MIC", "setting": "[4]", "value": 8, "unit": "µg/mL"}, {"measurement": "MBC", "setting": "[5]", "value": 32, "unit": "µg/mL"}, {"measurement": "MBC", "setting": "[6]", "value": 1, "unit": "µg/mL"}, {"measurement": "MBC", "setting": "[7]", "value": 2, "unit": "µg/mL"}, {"measurement": "MBC", "setting": "[8]", "value": 4, "unit": "µg/mL"}, {"measurement": "MBC", "setting": "[9]", "value": 0.25, "unit": "µg/mL"}, {"measurement": "MIC", "setting": "[10]", "value": 1, "unit": "µg/mL"}, {"measurement": "MIC", "setting": "[11]", "value": 0.125, "unit": "µg/mL"}, {"measurement": "MIC", "setting": "[12]", "value": 1, "unit": "µg/mL"}, {"measurement": "MIC", "setting": "[13]", "value": 1, "unit": "µg/mL"}]}
